Results as given in patent US8507464B2, “Phosphoramidate alkylator prodrugs” (Threshold Pharmaceuticals, Inc., priority 2005, dated 2013).

Key:
[1] = test system: NCI-H460 cells; assay: Antiproliferation assay (Alamar Blue), anoxia vs air
[2] = test system: NCI-H460 cells; assay: Antiproliferation assay - oxygen dependence; type: cell-based, human
Description: . […] The calculated IC50 values (μM) are tabulated in Table Y1 (H460 cells) or Table Y2 (HT29 cells) below.

[3] = Homo sapiens, NCI-H460, 2 h, read-out: IC50 H460 Air
[4] = Homo sapiens, NCI-H460, 2 h, read-out: IC50 H460 Anoxia
[5] = Homo sapiens, NCI-H460, read-out: IC50 in H460 cells, 0.6% O2
[6] = Homo sapiens, NCI-H460; read-out: IC50 in H460 cells, Air
[7] = Homo sapiens, NCI-H460; read-out: IC50 in H460 cells, N2
[8] = Homo sapiens, NCI-H460, 2 h, read-out: IC50 H460 Air, air, 2 h exposure
[9] = Homo sapiens, NCI-H460, 2 h, read-out: IC50 H460 Anoxia, anoxia, 2 h exposure
[10] = Homo sapiens, NCI-H460, read-out: IC50 in H460 cells, Air
[11] = Homo sapiens, NCI-H460, read-out: IC50 in H460 cells, N2
[12] = read-out: IC50 H460 Air, air, 2 h exposure
[13] = read-out: IC50 H460 Anoxia, anoxia, 2 h exposure
[14] = Air; read-out: IC50 in H460 cells, Air
[15] = N2; read-out: IC50 in H460 cells, N2
[16] = read-out: IC50 in H460 cells, 0.6% O2

Row | SMILES | IC50 [2, 5] | IC50 [1, 8] | IC50 [1, 9] | IC50 [2, 10] | other results
1 | O=[N+]([O-])c1ccc(COP(=O)(NCCOS(=O)(=O)c2ccccc2)NCCOS(=O)(=O)c2ccccc2)o1 [Compound 106] | 0.7 µM |  |  |  | IC50 [1, 3]: 3.5 µM; IC50 [1, 4]: 0.09 µM; IC50 [2, 6]: 4 µM; IC50 [2, 7]: 0.1 µM
2 | CC(C)(OP(N)(=O)N(CCCl)CCCl)c1ccc([N+](=O)[O-])cc1 (stereo not shown) [Compound 113] | > 100 µM | ≥ 100 µM | 1 µM | > 100 µM | IC50 [2, 11]: 1 µM
3 | O=[N+]([O-])c1ccc(COP2(=O)N(CCBr)CCN2CCBr)s1 [Compound 110] | 3 µM | 21 µM | 0.3 µM | 25 µM | IC50 [2, 11]: 0.3 µM
4 | C[C@@H](CCl)NP(=O)(N[C@@H](C)CCl)OCc1cnc([N+](=O)[O-])n1C [Compound 38] | 45 µM | > 100 µM | 0.33 µM |  | IC50 ([2]; Homo sapiens, NCI-H460, read-out: IC50 in H460 cells, 1% O2): > 100 µM; IC50 [2, 7]: 0.4 µM
5 | O=[N+]([O-])c1ccc(-c2ccc(COP(=O)(NCCBr)NCCBr)cc2)o1 [Compound 55] | 8 µM | 12 µM | 5 µM | 12 µM | IC50 [2, 11]: 5 µM
6 | COc1cc(COP(=O)(NCCBr)NCCBr)ccc1OCc1cnc([N+](=O)[O-])n1C [Compound 56] | 8 µM | 10 µM | 0.5 µM | 10 µM | IC50 [2, 11]: 0.5 µM
7 | CCCn1c(COP(=O)(NCCBr)NCCBr)cnc1[N+](=O)[O-] [Compound 84] | 3 µM | 40 µM | 0.003 µM | 40 µM | 
8 | O=[N+]([O-])c1ccc(COP2(=O)N(CCBr)CCN2CCBr)o1 [Compound 109] | 10 µM | 13 µM | 0.3 µM | 15 µM | IC50 [2, 11]: 0.3 µM
9 | Cc1csc(C(C)OP(=O)(NCCCl)NCCCl)c1[N+](=O)[O-] (stereo not shown) [Compound 100] |  |  |  |  | IC50 [1, 12]: 35 µM; IC50 [1, 13]: 0.5 µM; IC50 [2, 14]: 35 µM; IC50 [2, 15]: 0.5 µM; IC50 [2, 16]: 10 µM
10 | Cn1c(COc2ccc(COP(=O)(NCCBr)NCCBr)cc2F)cnc1[N+](=O)[O-] [Compound 50] | 3 µM | 3 µM | 0.1 µM | 3 µM | 
11 | CC(OP(N)(=O)N(CCCl)CCCl)c1cnc([N+](=O)[O-])n1C (stereo not shown) [Compound 114] | 5 µM | 80 µM | 1 µM | 80 µM | IC50 [2, 11]: 1 µM
12 | O=[N+]([O-])c1ccc(-c2ccc(COP(=O)(NCCBr)NCCBr)cc2)s1 [Compound 53] | 5 µM | 10 µM | 3 µM | 10 µM | 
13 | CC(OP(=O)(NCCBr)NCCBr)c1ccc(OCc2cnc([N+](=O)[O-])n2C)c([N+](=O)[O-])c1 (stereo not shown) [Compound 61] |  |  |  |  | IC50 [1, 12]: 4 µM; IC50 [1, 13]: 0.3 µM; IC50 [2, 14]: 4 µM; IC50 [2, 15]: 0.3 µM; IC50 [2, 16]: 4 µM
14 | N#Cc1cc(C#CCOP(=O)(NCCBr)NCCBr)sc1[N+](=O)[O-] [Compound 98] |  |  |  |  | IC50 [1, 12]: 2 µM; IC50 [1, 13]: 0.1 µM; IC50 [2, 14]: 2 µM; IC50 [2, 16]: 0.5 µM
15 | CC#Cc1cc(COP(=O)(NCCBr)NCCBr)sc1[N+](=O)[O-] [Compound 99] |  |  |  |  | IC50 [1, 12]: 1 µM; IC50 [1, 13]: 0.1 µM; IC50 [2, 14]: 1 µM; IC50 [2, 16]: 0.5 µM
16 | CC(C)[C@H](CCl)NP(=O)(N[C@@H](CCl)C(C)C)OCc1ccc([N+](=O)[O-])s1 [Compound 44] | 45 µM | 100 µM | 3 µM |  | IC50 [2, 6]: > 100 µM
17 | O=[N+]([O-])c1ncc(COP(=O)(NCCBr)NCCBr)n1C1CCCCC1 [Compound 77] |  | 5.5 µM | 1.6 µM |  | 
18 | COc1cc(COP(=O)(N[C@H](C)CCl)N[C@H](C)CCl)ccc1OCc1cnc([N+](=O)[O-])n1C [Compound 54] | 30 µM | 60 µM | 1 µM |  | IC50 [2, 6]: 60 µM; IC50 [2, 7]: 1 µM
19 | Cn1c(CSCCOP(=O)(NCCBr)NCCBr)cnc1[N+](=O)[O-] [Compound 91] |  | > 100 µM |  |  | 
20 | C[C@H](CBr)NP(=O)(N[C@H](C)CBr)OCc1cnc([N+](=O)[O-])n1C [Compound 66] |  |  |  |  | IC50 ([1]; read-out: IC50 H460 Anoxia): 0.3 µM; IC50 [2, 16]: 20 µM; IC50 ([2]; read-out: IC50 in H460 cells, N2): 0.3 µM
21 | O=[N+]([O-])c1ccc(COP(=O)(NCCOS(=O)(=O)c2ccc(Cl)cc2)NCCOS(=O)(=O)c2ccc(Cl)cc2)o1 [Compound 107] |  |  |  |  | IC50 [1, 3]: 2.8 µM; IC50 [1, 4]: 0.06 µM
22 | C[C@H](CCl)NP(=O)(N[C@H](C)CCl)OCc1ccc([N+](=O)[O-])s1 [Compound 39] |  |  |  |  | IC50 ([1]; read-out: IC50 H460 Air): 5 µM; IC50 ([1]; read-out: IC50 H460 Anoxia): 0.2 µM
23 | CC(C)[C@H](CCl)NP(=O)(N[C@@H](CCl)C(C)C)OCc1cnc([N+](=O)[O-])n1C [Compound 45] |  | > 100 µM | 6 µM |  | 
24 | Cn1c(COC(=O)NC(C)(C)COP2(=O)N(CCBr)CCN2CCBr)cnc1[N+](=O)[O-] [Compound 112] |  | > 100 µM | 70 µM |  | 
25 | CC(C)[C@@H](CCl)NP(=O)(N[C@H](CCl)C(C)C)OCc1ccc([N+](=O)[O-])o1 [Compound 46] | 50 µM | > 100 µM | 5 µM |  | IC50 [2, 6]: 100 µM
